Data set [1] relates to annual broad-leaved weeds (Lindernia spp., Rotala indica). In words: Test Example 1: herbicidal effects, paddy-field pot test. The format is in vivo. The following applies: wettable powder applied 3 days after transplanting, judged after 25 days. As to the method:
(§1) A paddy soil was filled in 1/10,000 are pot, and seeds of barnyardgrass (Echinochloa oryzicola Vasing.), Scirpus joncoides and annual broad-leaved weeds (Lindernia spp., Rotala indica) which are awaken from dormancy were mixed at the surface layer of 1 cm. Also, tuber of Cyperus serotinus which is germinated was planted, and further seedlings of paddy-field rice at 2.2-leaf stage were transplanted, and they were grown under the flooded condition in a greenhouse. After 3 days from transplanting, a predetermined chemical dosage of the wettable powder prepared in accordance with Preparation example 1 was diluted in water, and the solution was applied to the pot and herbicidal effects and crop injury against transplanted paddy-field rice were judged after 25 days from the treatment. Also, 3-(2-allylphenoxy)-6-chloro-4-methoxypyridazine described in Chemical Pharmaceutical Bulletin, 1972, vol. 20, No. 10, pp. 2191-2203 was used as Comparative compound. Incidentally, herbicidal effects and crop injury against transplanted paddy-field rice were judged by the following judgment standard, and “-” in the table means no test was carried out.
(§2) Judgment Standard • 0: Growth inhibition rate; 0 to 10% • 1: Growth inhibition rate; 11 to 30% • 2: Growth inhibition rate; 31 to 50% • 3: Growth inhibition rate; 51 to 70% • 4: Growth inhibition rate; 71 to 90% • 5: Growth inhibition rate; 91 to 100%.

Data set [2] has as its system barnyardgrass (Echinochloa oryzicola Vasing.). The data set is described as above. It counts as in vivo. The following applies: wettable powder applied 3 days after transplanting, judged after 25 days. As to the method:
as §1, §2

In data set [3] the test system is transplanted paddy-field rice. As to the kind of experiment: Test Example 1: crop injury against transplanted paddy-field rice. The following applies: wettable powder applied 3 days after transplanting, judged after 25 days. The format is in vivo. The method, then: as §1, §2
The next data set relates to Cyperus serotinus. As to the kind of experiment: Test Example 1: herbicidal effects, paddy-field pot test. Particulars: wettable powder applied 3 days after transplanting, judged after 25 days. The format is in vivo. As to the method: as §1, §2
The subject of a further data set is Scirpus joncoides. The data set is described as above. It counts as in vivo. The following applies: wettable powder applied 3 days after transplanting, judged after 25 days. As to the method:
as §1, §2

With `Oc1cc(Cl)nnc1Oc1c(F)cc(C2CC2)cc1C1CC1` [Example 313], in data set [1] (chemical dosage 20 g/a), the “Herbicidal effects Broad leaf” value is given as 5 (Growth inhibition rate; 91 to 100%). For the same compound, the “Herbicidal effects Barnyard grass” value in data set [2] (chemical dosage 20 g/a) is on record as 1 (Growth inhibition rate; 11 to 30%). The “Crop injury against transplanted rice” value in data set [3] (chemical dosage 20 g/a) was 0 (Growth inhibition rate; 0 to 10%).

Consider `Oc1cc(Cl)nnc1Oc1cccc2c1CC1CC21` (stereo not drawn) [Example 15], for which the “Herbicidal effects Cyperus serotinus” value with Cyperus serotinus (chemical dosage 10 g/a) is reported as 5 (Growth inhibition rate; 91 to 100%). For the same compound, in data set [1] (chemical dosage 10 g/a), the “Herbicidal effects Broad leaf” value was 5 (Growth inhibition rate; 91 to 100%). For the same compound, the “Herbicidal effects Barnyard grass” value in data set [2] (chemical dosage 10 g/a) is recorded as 1 (Growth inhibition rate; 11 to 30%). In addition, the “Crop injury against transplanted rice” value in data set [3] (chemical dosage 10 g/a) is recorded as 0 (Growth inhibition rate; 0 to 10%).

Take `CC(C)c1cccc(I)c1Oc1nnc(Cl)cc1O` [Example 258]: the “Herbicidal effects Broad leaf” value in data set [1] (chemical dosage 10 g/a) is reported as 5 (Growth inhibition rate; 91 to 100%). The “Herbicidal effects Barnyard grass” value in data set [2] (chemical dosage 10 g/a) is reported as 3 (Growth inhibition rate; 51 to 70%). Moreover, in data set [3] (chemical dosage 10 g/a), the “Crop injury against transplanted rice” value is 0 (Growth inhibition rate; 0 to 10%).

As for `CCc1ccc(C2CC2)c(Oc2nnc(Cl)cc2O)c1` [Example 219], the “Herbicidal effects Broad leaf” value in data set [1] (chemical dosage 10 g/a) and in data set [1] (chemical dosage 20 g/a) was 5 (Growth inhibition rate; 91 to 100%) throughout. Moreover, the “Herbicidal effects Barnyard grass” value in data set [2] (chemical dosage 10 g/a) is listed as 3 (Growth inhibition rate; 51 to 70%); in data set [2] (chemical dosage 20 g/a), 4 (Growth inhibition rate; 71 to 90%). Moreover, the “Herbicidal effects Scirpus joncoides” value with Scirpus joncoides (chemical dosage 10 g/a) and in the data set with Scirpus joncoides (chemical dosage 20 g/a) was 5 (Growth inhibition rate; 91 to 100%) in each case. For the same compound, the “Crop injury against transplanted rice” value in data set [3] (chemical dosage 10 g/a) and in data set [3] (chemical dosage 20 g/a) was 0 (Growth inhibition rate; 0 to 10%) each time.

As to `Oc1cc(Cl)nnc1Oc1c(Br)cccc1Br` [Example 248], the “Herbicidal effects Cyperus serotinus” value with Cyperus serotinus (chemical dosage 5 g/a) and in the data set with Cyperus serotinus (chemical dosage 10 g/a) was 5 (Growth inhibition rate; 91 to 100%) throughout. The “Herbicidal effects Broad leaf” value in data set [1] (chemical dosage 5 g/a) and in data set [1] (chemical dosage 10 g/a) was 5 (Growth inhibition rate; 91 to 100%) each time. The “Herbicidal effects Barnyard grass” value in data set [2] (chemical dosage 5 g/a) was 1 (Growth inhibition rate; 11 to 30%); in data set [2] (chemical dosage 10 g/a), 3 (Growth inhibition rate; 51 to 70%). For the same compound, the “Crop injury against transplanted rice” value in data set [3] (chemical dosage 5 g/a) and in data set [3] (chemical dosage 10 g/a) was 0 (Growth inhibition rate; 0 to 10%) each time.

Regarding `Cc1ccc(Oc2nnc(Cl)cc2O)c(C2CC2)c1` [Example 202], the “Herbicidal effects Cyperus serotinus” value with Cyperus serotinus (chemical dosage 10 g/a) is reported as 4 (Growth inhibition rate; 71 to 90%). Moreover, in data set [1] (chemical dosage 10 g/a), the “Herbicidal effects Broad leaf” value is 5 (Growth inhibition rate; 91 to 100%). In data set [2] (chemical dosage 10 g/a), the “Herbicidal effects Barnyard grass” value is listed as 2 (Growth inhibition rate; 31 to 50%). The “Crop injury against transplanted rice” value in data set [3] (chemical dosage 10 g/a) is listed as 0 (Growth inhibition rate; 0 to 10%).

With `CC(C)c1cccc(C(C)C)c1Oc1nnc(Cl)cc1O` [Example 271], the “Herbicidal effects Cyperus serotinus” value in the data set with Cyperus serotinus (chemical dosage 12.5 g/a) is on record as 3 (Growth inhibition rate; 51 to 70%); with Cyperus serotinus (chemical dosage 25 g/a), 4 (Growth inhibition rate; 71 to 90%). Also, the “Herbicidal effects Broad leaf” value in data set [1] (chemical dosage 12.5 g/a) and in data set [1] (chemical dosage 25 g/a) was 5 (Growth inhibition rate; 91 to 100%) each time. In addition, the “Herbicidal effects Barnyard grass” value is recorded as 1 (Growth inhibition rate; 11 to 30%) in data set [2] (chemical dosage 12.5 g/a) and 2 (Growth inhibition rate; 31 to 50%) in data set [2] (chemical dosage 25 g/a). The results for the “Herbicidal effects Scirpus joncoides” value in the data set on Scirpus joncoides (chemical dosage 12.5 g/a) and in the data set on Scirpus joncoides (chemical dosage 25 g/a) were 2 (Growth inhibition rate; 31 to 50%) and 4 (Growth inhibition rate; 71 to 90%), respectively.

Regarding `Cc1cc(C)c(Oc2nnc(Cl)cc2O)c(Br)c1` [Example 315], in the data set with Cyperus serotinus (chemical dosage 20 g/a), the “Herbicidal effects Cyperus serotinus” value is given as 5 (Growth inhibition rate; 91 to 100%). Further, in data set [1] (chemical dosage 20 g/a), the “Herbicidal effects Broad leaf” value is 5 (Growth inhibition rate; 91 to 100%). Moreover, the “Herbicidal effects Barnyard grass” value in data set [2] (chemical dosage 20 g/a) is on record as 4 (Growth inhibition rate; 71 to 90%). Further, the “Crop injury against transplanted rice” value in data set [3] (chemical dosage 20 g/a) is on record as 0 (Growth inhibition rate; 0 to 10%).

Turning to `CN(C)C(=O)Oc1cc(Cl)nnc1Oc1ccccc1C1CC1` [Example 352], in data set [1] (chemical dosage 20 g/a), the “Herbicidal effects Broad leaf” value is given as 5 (Growth inhibition rate; 91 to 100%). The “Herbicidal effects Barnyard grass” value in data set [2] (chemical dosage 20 g/a) is recorded as 4 (Growth inhibition rate; 71 to 90%). Further, in the data set on Scirpus joncoides (chemical dosage 20 g/a), the “Herbicidal effects Scirpus joncoides” value was 5 (Growth inhibition rate; 91 to 100%). The “Crop injury against transplanted rice” value in data set [3] (chemical dosage 20 g/a) is given as 0 (Growth inhibition rate; 0 to 10%).

Usually melting point stands for the temperature of the solid-liquid transition. The compound `Cc1cc(C)c(C2CC2)c(Oc2nnc(Cl)cc2O)c1C` [Compound No. 1126, 6-Chloro-3-(2-cyclopropyl-3,5,6-trimethylphenoxy)-4-pyridazinol] registered a melting point of 212 to 219 °C.

`CC(C)c1cc(Oc2nnc(Cl)cc2O)cc(C(C)C)c1` [Compound No. 1007, 6-Chloro-3-(3,5-diisopropylphenoxy)-4-pyridazinol] showed a melting point of 249 to 253 °C.

Turning to `Oc1cc(Cl)nnc1Oc1ccccc1` [Compound No. 123, 6-Chloro-3-phenoxy-4-pyridazinol], the melting point was 222 to 224 °C.

On to `COc1ccc(Br)cc1Oc1nnc(Cl)cc1O` [Compound No. 702, 3-(5-Bromo-2-methoxyphenoxy)-6-chloro-4-pyridazinol], for which the melting point lay in the range of 135 to 137 °C.

Turning to `CC(C)(C)c1ccc(C(C)(C)C)c(Oc2nnc(Cl)cc2O)c1` [Compound No. 653, 6-Chloro-3-(2,5-di-tert-butylphenoxy)-4-pyridazinol], the melting point was 249 to 258 °C.

Compound `Cc1cccc(C2CC2)c1Oc1nnc(Cl)cc1OC(=O)N(C(C)C)C(C)C` showed a melting point of 103 to 105 °C.

In turn, `CCOc1ccccc1Oc1nnc(Cl)cc1O` [Compound No. 386, 6-Chloro-3-(2-ethoxyphenoxy)-4-pyridazinol] yielded a melting point of 155 to 175 °C.

The compound `Cc1ccccc1Oc1nnc(Cl)cc1OC(=O)c1ccccc1C` [Compound No. 1446, 6-Chloro-3-(2-methylphenoxy)-4-pyridazinyl 2-methylbenzoate] came in with a melting point of 91 to 93 °C.

With `CCC(C)c1ccccc1Oc1nnc(Cl)cc1O` (stereo not drawn) [Compound No. 135, 3-(2-s-Butylphenoxy)-6-chloro-4-pyridazinol], the melting point lay in the range of 158 to 159 °C.

Compound `Cc1cccc(C2CC2)c1Oc1nnc(Cl)cc1OC(=O)c1cnccc1C(F)(F)F` [Compound No. 3462, 6-Chloro-3-(2-cyclopropyl-6-methylphenoxy)-4-pyridazinyl 4-(trifluoromethyl)nicotinate] gave a melting point of 92 to 93 °C.

As for `CC(C)c1cc(Oc2nnc(Cl)cc2O)cc(C(C)C)c1` [Compound No. 642, 6-Chloro-3-(3,5-diisopropylphenoxy)-4-pyridazinol], the melting point is 231 to 235 °C.

Regarding `Cc1ccc2occc2c1Oc1nnc(Cl)cc1O` [Compound No. 1109, 6-Chloro-3-[(5-methyl-1-benzofuran-4-yl)oxy]-4-pyridazinol], the melting point lay in the range of 222 to 225 °C.

Take `CCC(C)c1cccc(C)c1Oc1nnc(Cl)cc1O` (stereo not drawn) [Compound No. 804, 3-(2-s-Butyl-6-methylphenoxy)-6-chloro-4-pyridazinol]: the melting point lay in the range of 187 to 189 °C.

As for `N#Cc1cccc(Oc2nnc(Cl)cc2O)c1` [Compound No. 420, 3-[(6-Chloro-4-hydroxy-3-pyridazinyl)oxy]benzonitrile], the melting point fell in the range of 226 to 229 °C.

`Cc1c(F)cccc1Oc1nnc(Cl)cc1O` [Compound No. 453, 6-Chloro-3-(3-fluoro-2-methylphenoxy)-4-pyridazinol] came in with a melting point of 242 to 244 °C.

Regarding `CCc1cc(I)cc(I)c1Oc1nnc(Cl)cc1O` [Example 316], the “Herbicidal effects Broad leaf” value in data set [1] (chemical dosage 10 g/a) and in data set [1] (chemical dosage 20 g/a) was 5 (Growth inhibition rate; 91 to 100%) throughout. Besides, the “Herbicidal effects Barnyard grass” value in data set [2] (chemical dosage 10 g/a) is 2 (Growth inhibition rate; 31 to 50%); in data set [2] (chemical dosage 20 g/a), 3 (Growth inhibition rate; 51 to 70%). In addition, the “Crop injury against transplanted rice” value in data set [3] (chemical dosage 10 g/a) and in data set [3] (chemical dosage 20 g/a) was 0 (Growth inhibition rate; 0 to 10%) in each case.

Consider `COc1cccc(Oc2nnc(Cl)cc2O)c1I` [Compound No. 2551, 6-Chloro-3-(2-iodo-3-methoxyphenoxy)-4-pyridazinol], for which the melting point fell in the range of 231 to 234 °C.

With `CCc1ccc(OC)cc1Oc1nnc(Cl)cc1O` [Compound No. 635, 6-Chloro-3-(2-ethyl-5-methoxyphenoxy)-4-pyridazinol], the melting point was 124 to 126 °C.

Values taken from patent US7964531B2, “3-phenoxy-4-pyridazinol derivatives and herbicidal composition containing the same” (Mitsui Chemicals Agro, Inc., priority 2001, dated 2011).
